{"source": "ChEMBL document CHEMBL3244207", "about": "“Synthesis and antiallergic activity of 2-hydroxy-3-nitro-1,4-naphthoquinones” (1977)", "note": "Activity calls are given as the source filed them. The rule behind the calls is not given here."}
{"system": "Rattus norvegicus", "assay": "Antiallergic activity in Wistar rat assessed as inhibition of passive cutaneous anaphylaxis up to 500 uM/kg, sc", "assay_type": "functional, organism-based"}
{"smiles": "CC1(C)C(=O)C([N+](=O)[O-])=C(O)c2ccccc21", "inhibition": "inactive"}
{"smiles": "Cc1cccc2c1C(C)(C)C(=O)C([N+](=O)[O-])=C2O", "inhibition": "inactive"}
{"smiles": "Cc1ccc2c(c1)C(O)=C([N+](=O)[O-])C(=O)C2(C)C", "inhibition": "inactive"}
{"smiles": "Cc1c(O)c([N+](=O)[O-])c(O)c2ccccc12", "inhibition": "inactive"}
{"system": "Rattus norvegicus", "assay": "Antiallergic activity in sc dosed Wistar rat assessed as inhibition of passive cutaneous anaphylaxis at Tmax", "assay_type": "functional", "units": {"ED50": "µmol/kg"}}
{"smiles": "O=C1C(O)=C([N+](=O)[O-])C(=O)c2ccc(F)cc21", "ED50": "> 500"}
{"smiles": "O=C1C(O)=C([N+](=O)[O-])C(=O)c2ccc(Br)cc21", "ED50": "> 500"}
{"smiles": "CCc1cc2c(cc1CC)C(=O)C([N+](=O)[O-])=C(O)C2=O", "ED50": 27.3}
{"smiles": "O=C(O)c1cc(=O)c2c(OCC(O)COc3cccc4oc(C(=O)O)cc(=O)c34)cccc2o1", "note": "[CROMOLYN SODIUM]", "ED50": 13.1}
{"smiles": "CCOc1ccc2c(c1)C(=O)C(O)=C([N+](=O)[O-])C2=O", "ED50": 68.2}
{"smiles": "Cc1ccc2c(c1)C(=O)C(O)=C([N+](=O)[O-])C2=O", "ED50": 181}
{"smiles": "O=C1C(O)=C([N+](=O)[O-])C(=O)c2ccccc21", "ED50": 141}
{"smiles": "O=C1C(O)=C([N+](=O)[O-])C(=O)c2ccc(-c3ccccc3)cc21", "ED50": "> 500"}
{"smiles": "Cc1ccc2c(c1)C(=O)C([N+](=O)[O-])=C(O)C2=O", "ED50": 63.9}
{"smiles": "COc1cc2c(cc1OC)C(=O)C([N+](=O)[O-])=C(O)C2=O", "ED50": 42.8}
{"smiles": "Cc1cccc2c1C(=O)C(O)=C([N+](=O)[O-])C2=O", "ED50": 76.2}
{"smiles": "COc1ccc2c(c1)C(=O)C(O)=C([N+](=O)[O-])C2=O", "ED50": 51.3}
{"smiles": "O=C1C([N+](=O)[O-])=C(O)C(=O)c2c(O)cccc21", "ED50": "> 500"}
{"smiles": "O=C1C(O)=C([N+](=O)[O-])C(=O)c2cc3c(cc21)CCCC3", "ED50": 7.3}
{"smiles": "Cc1cc2c(cc1C)C(=O)C([N+](=O)[O-])=C(O)C2=O", "ED50": 11}
{"system": "Rattus norvegicus", "assay": "Antiallergic activity in po dosed Wistar rat assessed as inhibition of passive cutaneous anaphylaxis administered 10 mins prior to antigen-challenge", "assay_type": "functional", "units": {"ED50": "µmol/kg"}}
{"smiles": "O=C1C(O)=C([N+](=O)[O-])C(=O)c2cc3c(cc21)CCCC3", "ED50": 100}
{"smiles": "Cc1cc2c(cc1C)C(=O)C([N+](=O)[O-])=C(O)C2=O", "ED50": 100}
